# Measurements as given in patent US20230277630A1, “METHODS AND COMPOSITIONS FOR TREATING AMYOTROPHIC LATERAL SCLEROSIS” (Amylyx Pharmaceuticals, Inc., priority 2022, published 2023).
# What was measured:
# [1] = CYP reaction phenotyping: CYP control (negative control without CYP enzymes); conditions: CYP Control (without CYP enzymes) 0.1 mg protein/mL, TA 5 μM
# Experimental: The reaction was initiated by the addition of NADPH, followed by incubation at 37° C.
# P-gp and BCRP = assay: in vitro; conditions: human
# Experimental: The P-gp and BCRP substrate assessment was conducted in C2BBe1 cell monolayers. […] LY was co-dosed with each dosing solution at a nominal concentration of 200 μM.
# The cell culture medium was aspirated, and the cell monolayers were rinsed once with HBSSg_7.4. […] For receiver samples, aliquots (300 μL) were taken at pre-selected time points. […] For donor samples, aliquots (50 μL) were taken at pre-selected time points without replacement.
# [2] = biological target: T1, human liver microsomes (HLM) (Homo sapiens, UniProt P20813); assay: CYP reaction phenotyping using HLM and chemical inhibitors (% remaining); type: in vitro ADME; conditions: human, microsomes, 5 μM, pH 7.4
# T1 construct: from tissue; host or cells: pooled human liver microsomes
# T1 sequence (P20813 1-491): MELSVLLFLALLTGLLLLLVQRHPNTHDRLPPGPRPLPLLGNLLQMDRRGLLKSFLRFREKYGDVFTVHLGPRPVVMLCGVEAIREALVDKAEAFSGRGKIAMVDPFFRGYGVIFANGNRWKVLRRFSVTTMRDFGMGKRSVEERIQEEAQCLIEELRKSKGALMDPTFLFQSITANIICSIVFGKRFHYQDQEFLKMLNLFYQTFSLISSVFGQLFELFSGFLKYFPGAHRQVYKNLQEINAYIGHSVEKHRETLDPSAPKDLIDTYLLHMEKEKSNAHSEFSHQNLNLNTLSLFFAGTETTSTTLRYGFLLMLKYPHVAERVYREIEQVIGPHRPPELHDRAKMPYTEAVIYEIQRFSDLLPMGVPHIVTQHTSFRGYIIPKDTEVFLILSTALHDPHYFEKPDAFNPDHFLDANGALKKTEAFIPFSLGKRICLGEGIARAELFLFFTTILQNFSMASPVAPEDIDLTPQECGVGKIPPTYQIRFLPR
# Description: % Remaining of TA=100×At/A0
# Where, At and A0 are the peak area ratio of TA to IS at time t and at time zero, respectively.
# [3] = Chemical stability in HBSSg_7.4 and HBSS_8.5; type: physicochemical
# Experimental: The test article was prepared in DMSO stock (0.5 mM), and aliquots of the DMSO stock were added to each matrix. The nominal concentration of each component was 0.5 μM in each matrix. […] At pre-determined time points, an equal volume of acetonitrile with internal standard was added to each vial, and the mixture was placed at 4° C. until the end of the assay. The peak areas of the test article and IS of each sample were determined by LC-MS/MS, and the ratios of the peak areas (analyte: IS) were calculated.
# [4] = Caco-2, pH 7.4, AP-to-BL Papp of TUDCA
# [5] = Caco-2, pH 7.4, AP-to-BL Recovery of TUDCA
# [6] = Caco-2, pH 7.4, BL-to-AP Papp of TUDCA
# [7] = Caco-2, pH 7.4, BL-to-AP Recovery of TUDCA
smiles,measurement,setting,value
"C[C@H](CCC(=O)NCCS(=O)(=O)O)[C@H]1CC[C@H]2[C@@H]3[C@@H](O)C[C@@H]4C[C@H](O)CC[C@]4(C)[C@H]3CC[C@]12C [TUDCA, tauroursodeoxycholic acid]",% Remaining of TA,[1]; 0 min,100%
same,% Remaining of TA,[1]; 5 min,99.4%
same,% Remaining of TA,[1]; 10 min,97.9%
same,% Remaining of TA,[1]; 20 min,95.9%
same,% Remaining of TA,[1]; 30 min,93.7%
same,Papp A→B at 1.62 µM,P-gp and BCRP; [4],9.59 ×10⁻⁶ cm/s
same,Papp A→B at 81 µM,P-gp and BCRP; [4],5.84 ×10⁻⁶ cm/s
same,Papp A→B at […],P-gp and BCRP; [4],7.47 ×10⁻⁶ cm/s
same,recovery at 1.62 μM,P-gp and BCRP; [5],78.5%
same,recovery at 16.2 μM,P-gp and BCRP; [5],71.6%
same,recovery at 81 μM,P-gp and BCRP; [5],101%
same,Papp B→A at 1.62 µM,P-gp and BCRP; [6],1.75 ×10⁻⁶ cm/s
same,Papp B→A at 16.2 µM,P-gp and BCRP; [6],0.553 ×10⁻⁶ cm/s
same,Papp B→A at 81 µM,P-gp and BCRP; [6],2.66 ×10⁻⁶ cm/s
same,Papp B→A at […],P-gp and BCRP; [6],1.94 ×10⁻⁶ cm/s
same,recovery at 1.62 μM,P-gp and BCRP; [7],79.5%
same,recovery at 16.2 μM,P-gp and BCRP; [7],76.1%
same,recovery at 81 μM,P-gp and BCRP; [7],101%
same,% Remaining of TA (n = 3) Average,[2]; 0 h,100%
same,% Remaining of TA (n = 3) Average,[2]; 5 min,112%
same,% Remaining of TA (n = 3) Average,[2]; 10 min,112%
same,% Remaining of TA (n = 3) Average,[2]; 20 min,122%
same,% Remaining of TA (n = 3) Average,[2]; 0.5 h,116%
same,% Remaining of TA (n = 3) Average,[2]; 1 h,102%
"O=C(O)CCCc1ccccc1 [PB, sodium phenylbutyrate]",Percent of the 0-minute value,"[3]; HBSSg_7.4, Overnight (1020-[…])",105%
same,Percent of the 0-minute value,"[3]; HBSSg_7.4, sampling time 0 minutes",100%
same,Percent of the 0-minute value,"[3]; HBSSg_7.4, sampling time 120 minutes",99.3%
same,chemical stability in the tested matrices,"[3]; HBSSg_7.4 and HBSS_8.5, 37° C., 0.5 μM",appeared to be stable
same,Percent of the 0-minute value,"[3]; HBSSg_8.5, Overnight (1020-[…])",98.6%
same,Percent of the 0-minute value,"[3]; HBSSg_8.5, sampling time 0 minutes",100%
same,Percent of the 0-minute value,"[3]; HBSSg_8.5, sampling time 120 minutes",79.4%
